The source of these data is patent publication US9763957B2, “Autotaxin inhibitors” (Novartis AG, priority 2013, dated 2017).

The target of the test is Recombinant human ATX (Homo sapiens (Human), UniProt Q13822). Description: ATX inhibition assay (choline release, Amplex Red fluorescence). Format: biochemical. The settings on record: ATX 10 nM, LPC 18:1 10 μM, 37° C., 20 min pre-incubation; mean of n≧2. The procedure, abridged:
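Activity was taken from the slope of resorufin fluorescence (530/590 nm, read every 2 min for 40 min at 37 °C) produced by choline liberated from 10 μM oleoyl LPC.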
As usually defined, the IC50 is the concentration that gives 50% inhibition. With `Cc1cnn(CC2CCN(C(=O)/C=C/c3ccc(Cl)cc3Cn3nnc(C)n3)CC2)n1` [Example 120, (E)-3-(4-Chloro-2-((5-methyl-2H-tetrazol-2-yl)methyl)phenyl)-1-(4-((4-methyl-2H-1,2,3-triazol-2-yl)methyl)piperidin-1-yl)prop-2-en-1-one], the IC50 is 8.1 nM.
Under `Cc1nnn(Cc2cc(C(F)(F)F)ccc2/C=C/C(=O)N2CCCC[C@H]2C(F)(F)F)n1` [Example 121, (S,E)-3-(2-((5-Methyl-2H-tetrazol-2-yl)methyl)-4-(trifluoromethyl)phenyl)-1-(2-(trifluoromethyl)piperidin-1-yl)prop-2-en-1-one] stands 6.9 nM.
Under `Cc1nnn(Cc2cc(Cl)ccc2/C=C/C(=O)N2CCC(c3nnc(CN4CCCCC4)o3)CC2)n1` [Example 122, (E)-3-(4-Chloro-2-((5-methyl-2H-tetrazol-2-yl)methyl)phenyl)-1-(4-(5-(piperidin-1-ylmethyl)-1,3,4-oxadiazol-2-yl)piperidin-1-yl)prop-2-en-1-one] stands 58 nM; under `COc1ccc(CN2CCN(C(=O)/C=C/c3ccc(Cl)cc3Cn3nnc(C)n3)[C@H](C)C2)nc1` [Example 123, (R,E)-3-(4-Chloro-2-((5-methyl-2H-tetrazol-2-yl)methyl)phenyl)-1-(4-((5-methoxypyridin-2-yl)methyl)-2-methylpiperazin-1-yl)prop-2-en-1-one], 3.5 nM; under `Cc1nnn(Cc2cc(C(F)(F)F)ccc2/C=C/C(=O)N2CCCCC2C(F)(F)F)n1` (centres unmarked) [Example 124, (E)-3-(2-((5-Methyl-2H-tetrazol-2-yl)methyl)-4-(trifluoromethyl)phenyl)-1-(2-(trifluoromethyl)piperidin-1-yl)prop-2-en-1-one], 35 nM.
Under `CC(=O)NC1CCN(C(=O)/C=C/c2ccc(Cl)cc2Cn2nnc(C)n2)CC1` [Example 125, (E)-N-(1-(3-(4-Chloro-2-((5-methyl-2H-tetrazol-2-yl)methyl)phenyl)acryloyl)piperidin-4-yl)acetamide] stands 110 nM; under `Cc1nnn(Cc2cc(C(F)(F)F)ccc2/C=C/C(=O)N2CCC(N3CCCC3=O)CC2)n1` [Example 126, (E)-1-(1-(3-(2-((5-Methyl-2H-tetrazol-2-yl)methyl)-4-(trifluoromethyl)phenyl)acryloyl)piperidin-4-yl)pyrrolidin-2-one], 22 nM.
In the case of `Cc1nnn(Cc2cc(Cl)ccc2/C=C/C(=O)N2CCC(Cc3nnc(C)o3)CC2)n1` [Example 127, (E)-3-(4-Chloro-2-((5-methyl-2H-tetrazol-2-yl)methyl)phenyl)-1-(4-((5-methyl-1,3,4-oxadiazol-2-yl)methyl)piperidin-1-yl)prop-2-en-1-one], the IC50 worked out at 60 nM.
As for `COC(=O)C1CCN(C(=O)/C=C/c2ccc(Cl)cc2Cn2nnc(C)n2)CC1` [Example 128, (E)-Methyl 1-(3-(4-chloro-2-((5-methyl-2H-tetrazol-2-yl)methyl)phenyl)acryloyl)piperidine-4-carboxylate], the IC50 is 28 nM.
In the case of `Cc1nnn(Cc2cc(Cl)ccc2/C=C/C(=O)N2CCC(CC(=O)N3CCOCC3)CC2)n1` [Example 129, (E)-3-(4-Chloro-2-((5-methyl-2H-tetrazol-2-yl)methyl)phenyl)-1-(4-(2-morpholino-2-oxoethyl)piperidin-1-yl)prop-2-en-1-one] it was 49 nM; in that of `Cc1nnn(Cc2cc(Cl)ccc2/C=C/C(=O)N2CC(Oc3ccc(F)cc3)C2)n1` [Example 130, (E)-3-(4-Chloro-2-((5-methyl-2H-tetrazol-2-yl)methyl)phenyl)-1-(3-(4-fluorophenoxy)azetidin-1-yl)prop-2-en-1-one], 170 nM; in that of `Cc1nnn(Cc2cc(C(F)(F)F)ccc2/C=C/C(=O)N2C[C@@H](F)C[C@H]2CO)n1` [Example 131, (E)-1-((2S,4S)-4-Fluoro-2-(hydroxymethyl)pyrrolidin-1-yl)-3-(2-((5-methyl-2H-tetrazol-2-yl)methyl)-4-(trifluoromethyl)phenyl)prop-2-en-1-one], 23 nM.
Under `Cc1nnn(Cc2cc(C(F)(F)F)ccc2/C=C/C(=O)N2CCN(Cc3coc(C)n3)C[C@H]2CO)n1` [Example 132, (S,E)-1-(2-(Hydroxymethyl)-4-((2-methyloxazol-4-yl)methyl)piperazin-1-yl)-3-(2-((5-methyl-2H-tetrazol-2-yl)methyl)-4-(trifluoromethyl)phenyl)prop-2-en-1-one] stands 14 nM; under `Cc1nnn(Cc2cc(C(F)(F)F)ccc2/C=C/C(=O)N2CCC[C@H]2CO)n1` [Example 133, (S,E)-1-(2-(Hydroxymethyl)pyrrolidin-1-yl)-3-(2-((5-methyl-2H-tetrazol-2-yl)methyl)-4-(trifluoromethyl)phenyl)prop-2-en-1-one], 81 nM; under `Cc1nnn(Cc2cc(Cl)ccc2/C=C/C(=O)N2CCC(c3nnc(CN4CCOCC4)o3)CC2)n1` [Example 134, (E)-3-(4-Chloro-2-((5-methyl-2H-tetrazol-2-yl)methyl)phenyl)-1-(4-(5-(morpholinomethyl)-1,3,4-oxadiazol-2-yl)piperidin-1-yl)prop-2-en-1-one], 12 nM.
In the case of `Cc1nnn(Cc2cc(Cl)ccc2/C=C/C(=O)N2CCC(Oc3ccc(C(F)(F)F)cn3)CC2)n1` [Example 135, (E)-3-(4-Chloro-2-((5-methyl-2H-tetrazol-2-yl)methyl)phenyl)-1-(4-((5-(trifluoromethyl)pyridin-2-yl)oxy)piperidin-1-yl)prop-2-en-1-one] it was 327 nM; in that of `Cc1nnn(Cc2cc(Cl)ccc2/C=C/C(=O)N2CCC(Cc3nnc(CN4CCOCC4)o3)CC2)n1` [Example 136, (E)-3-(4-Chloro-2-((5-methyl-2H-tetrazol-2-yl)methyl)phenyl)-1-(4-((5-(morpholinomethyl)-1,3,4-oxadiazol-2-yl)methyl)piperidin-1-yl)prop-2-en-1-one], 32 nM.
For `Cc1nnn(Cc2cc(Cl)ccc2/C=C/C(=O)N2CCC(O)(Cc3ccccc3)CC2)n1` [Example 138, (E)-1-(4-Benzyl-4-hydroxypiperidin-1-yl)-3-(4-chloro-2-((5-methyl-2H-tetrazol-2-yl)methyl)phenyl)prop-2-en-1-one-N], the IC50 turned out to be 6.3 nM.
Under `Cc1nnn(Cc2cc(Cl)ccc2/C=C/C(=O)N2CCC(Cc3ccccc3)CC2)n1` [Example 139, (E)-1-(4-Benzylpiperidin-1-yl)-3-(4-chloro-2-((5-methyl-2H-tetrazol-2-yl)methyl)phenyl)prop-2-en-1-one] stands 67 nM; under `COc1ccc(CN2CCN(C(=O)/C=C/c3ccc(Cl)cc3Cn3nnc(C)n3)CC2)nc1` [Example 140.1, (E)-3-(4-Chloro-2-((5-methyl-2H-tetrazol-2-yl)methyl)phenyl)-1-(4-((5-methoxypyridin-2-yl)methyl)piperazin-1-yl)prop-2-en-1-one], 5.9 nM.
Take `Cc1cc(CN2CCN(C(=O)/C=C/c3ccc(Cl)cc3Cn3nnc(C)n3)CC2)on1` [Example 140.2, (E)-3-(4-Chloro-2-((5-methyl-2H-tetrazol-2-yl)methyl)phenyl)-1-(4-((3-methylisoxazol-5-yl)methyl)piperazin-1-yl)prop-2-en-1-one]: the 50% inhibitory concentration (IC50) came out at 64 nM.
Regarding `Cc1nnn(Cc2cc(Cl)ccc2/C=C/C(=O)N2CCN(Cc3coc(C)n3)CC2)n1` [Example 140.3, (E)-3-(4-Chloro-2-((5-methyl-2H-tetrazol-2-yl)methyl)phenyl)-1-(4-((2-methyloxazol-4-yl)methyl)piperazin-1-yl)prop-2-en-1-one], the IC50 was 30 nM.
Turning to `Cc1nnn(Cc2cc(Cl)ccc2/C=C/C(=O)N2CCN(Cc3nc4ccccc4n3C)CC2)n1` [Example 140.4, (E)-3-(4-Chloro-2-((5-methyl-2H-tetrazol-2-yl)methyl)phenyl)-1-(4-((1-methyl-1H-benzo[d]imidazol-2-yl)methyl)piperazin-1-yl)prop-2-en-1-one], the IC50 stood at 43 nM.
In the case of `Cc1nnn(Cc2cc(Cl)ccc2/C=C/C(=O)N2CCN(Cc3cc(-c4ccccc4)nn3C)CC2)n1` [Example 140.6, (E)-3-(4-Chloro-2-((5-methyl-2H-tetrazol-2-yl)methyl)phenyl)-1-(4-((1-methyl-3-phenyl-1H-pyrazol-5-yl)methyl)piperazin-1-yl)prop-2-en-1-one], the IC50 is 42 nM.
Under `Cc1nnn(Cc2cc(Cl)ccc2/C=C/C(=O)N2CCN(Cc3cnc(N4CCOCC4)nc3)CC2)n1` [Example 140.8, (E)-3-(4-Chloro-2-((5-methyl-2H-tetrazol-2-yl)methyl)phenyl)-1-(4-((2-morpholinopyrimidin-5-yl)methyl)piperazin-1-yl)prop-2-en-1-one] stands 8.8 nM; under `Cc1nnn(Cc2cc(Cl)ccc2/C=C/C(=O)N2CCN(Cc3cnn(C)c3)CC2)n1` [Example 140.9, (E)-3-(4-Chloro-2-((5-methyl-2H-tetrazol-2-yl)methyl)phenyl)-1-(4-((1-methyl-1H-pyrazol-4-yl)methyl)piperazin-1-yl)prop-2-en-1-one], 34 nM; under `Cc1nnn(Cc2cc(Cl)ccc2/C=C/C(=O)N2CCC(c3nnc(CC(F)(F)F)o3)CC2)n1` [Example 141, (E)-3-(4-Chloro-2-((5-methyl-2H-tetrazol-2-yl)methyl)phenyl)-1-(4-(5-(2,2,2-trifluoroethyl)-1,3,4-oxadiazol-2-yl)piperidin-1-yl)prop-2-en-1-one], 11 nM.
As to `Cc1nnn(Cc2cc(C(F)(F)F)ccc2/C=C/C(=O)N2CCOCC2C(F)(F)F)n1` (centres unmarked) [Example 142, (E)-3-(2-((5-Methyl-2H-tetrazol-2-yl)methyl)-4-(trifluoromethyl)phenyl)-1-(3-(trifluoromethyl)morpholino)prop-2-en-1-one], the IC50 was 12 nM.
`C[C@@H]1CN(Cc2ccc(F)cc2)CCN1C(=O)/C=C/c1ccc(Cl)cc1Cc1nnn(C)n1` [Example 143, (R,E)-3-(4-Chloro-2-((2-methyl-2H-tetrazol-5-yl)methyl)phenyl)-1-(4-(4-fluorobenzyl)-2-methylpiperazin-1-yl)prop-2-en-1-one]: the IC50 turned out to be 31 nM.
